Results on 22 compounds are retold here after patent publication US20250179078A1, “INHIBITORS OF NLRP3” (PTC THERAPEUTICS, INC., priority 2022, published 2025).

Molecules are shown by their SMILES. pIC50: −log10 of the molar value.

T1 sequence (Q96P20 whole entry): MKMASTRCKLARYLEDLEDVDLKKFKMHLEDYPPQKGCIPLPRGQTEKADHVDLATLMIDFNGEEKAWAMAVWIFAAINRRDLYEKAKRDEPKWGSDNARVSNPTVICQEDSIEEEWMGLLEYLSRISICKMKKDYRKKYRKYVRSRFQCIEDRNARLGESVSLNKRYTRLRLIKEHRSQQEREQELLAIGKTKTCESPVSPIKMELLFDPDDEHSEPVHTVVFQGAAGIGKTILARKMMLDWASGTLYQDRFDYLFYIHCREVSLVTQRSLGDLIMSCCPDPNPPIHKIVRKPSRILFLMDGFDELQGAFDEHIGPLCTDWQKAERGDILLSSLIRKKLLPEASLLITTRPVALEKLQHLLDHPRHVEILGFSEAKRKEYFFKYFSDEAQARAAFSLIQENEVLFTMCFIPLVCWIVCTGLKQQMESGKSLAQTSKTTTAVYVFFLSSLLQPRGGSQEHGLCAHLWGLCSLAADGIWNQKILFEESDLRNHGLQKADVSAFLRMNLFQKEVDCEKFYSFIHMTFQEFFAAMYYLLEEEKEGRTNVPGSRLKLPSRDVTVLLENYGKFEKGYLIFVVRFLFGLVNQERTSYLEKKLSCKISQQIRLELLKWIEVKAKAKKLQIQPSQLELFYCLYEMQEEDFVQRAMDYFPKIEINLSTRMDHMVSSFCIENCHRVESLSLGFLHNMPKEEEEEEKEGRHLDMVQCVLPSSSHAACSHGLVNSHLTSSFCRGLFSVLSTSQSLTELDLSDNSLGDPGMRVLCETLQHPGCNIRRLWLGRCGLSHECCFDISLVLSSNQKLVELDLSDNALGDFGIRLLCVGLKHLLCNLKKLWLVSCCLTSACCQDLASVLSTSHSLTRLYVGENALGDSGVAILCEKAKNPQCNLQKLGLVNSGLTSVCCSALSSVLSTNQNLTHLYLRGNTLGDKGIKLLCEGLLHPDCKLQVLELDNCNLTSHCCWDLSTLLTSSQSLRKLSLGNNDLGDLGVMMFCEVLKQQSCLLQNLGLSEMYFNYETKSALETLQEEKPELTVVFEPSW

The assay has as its target T1, NLRP3 (Homo sapiens, UniProt Q96P20).
T1 construct: host or cells: THP-1 cells differentiated with PMA
Briefly: IL-1β Secretion Assay (NLRP3-dependent IL1β secretion in THP1 cells). Format: cell-based. The conditions noted are these: PMA-differentiated THP-1 cells; compounds incubated 20 h; 2.5 μM Nigericin 3 h; HTRF IL-1β readout; read-out: IC50 IL-1β Inhibition. A digest of the protocol:
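IL-1β in conditioned media, measured by HTRF after 3 h 2.5 μM nigericin stimulation, gave % inhibition fitted logistically for IC50. Before that, PMA-differentiated (100 ng/mL, 24 h) THP-1 cells were preincubated 20 h with 7 compound concentrations (3-fold serial, DMSO 1:200).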
For orientation: TR-FRET usually uses a lanthanide donor and a delayed reading to cut background.
As for `O[C@@H]1COCC[C@H]1Nc1nnc(-c2ccc(C(F)(F)F)cc2C2CC2)c2cncn12` [Compound 334, (3S,4R)-4-({1-[2-cyclopropyl-4-(trifluoromethyl)phenyl]imidazo[1,5-d][1,2,4]triazin-4-yl}amino)oxan-3-ol], the pIC50 is 7.00 to 8.00.
Take `O[C@@H]1CCCCC[C@@H]1Nc1nnc(-c2ccc(C(F)(F)F)cc2CC(F)(F)F)c2cccn12` (racemic) [Compound 126, (1S,2R)-2-({1-[2-(2,2,2-trifluoroethyl)-4-(trifluoromethyl)phenyl]pyrrolo[1,2-d][1,2,4]triazin-4-yl}amino)cycloheptan-1-ol AND (1R,2S)-2-({1-[2-(2,2,2-trifluoroethyl)-4-(trifluoromethyl)phenyl]pyrrolo[1,2-d][1,2,4]triazin-4-yl}amino)cycloheptan-1-ol]: the pIC50 is 8.00 to 9.00.
`COc1ccc(-c2nnc(N[C@@H]3CCOC[C@H]3O)n3cccc23)c(CC(F)(F)F)c1` [Compound 144, (3S,4R)-4-({1-[4-methoxy-2-(2,2,2-trifluoroethyl)phenyl]pyrrolo[1,2-d][1,2,4]triazin-4-yl}amino)oxan-3-ol]: the negative-log IC50 (pIC50) was 8.00 to 9.00.
For the compound `O[C@H]1CCCC[C@@H]1Nc1nnc(-c2ccc(C(F)(F)F)cc2OC(F)(F)F)c2cccn12` [Compound 121, (1S,2S)-2-({1-[2-(trifluoromethoxy)-4-(trifluoromethyl)phenyl]pyrrolo[1,2-d][1,2,4]triazin-4-yl}amino)cyclohexan-1-ol], the pIC50 is 7.00 to 8.00.
As for `COc1ccc(-c2nnc(N[C@H]3C[C@@H](CO)C3)n3cncc23)c(CC(F)(F)F)c1` [Compound 314, [(1s,3s)-3-({1-[4-methoxy-2-(2,2,2-trifluoroethyl)phenyl]imidazo[1,5-d][1,2,4]triazin-4-yl}amino)cyclobutyl]methanol], the pIC50 is 8.00 to 9.00.
For the compound `COc1ccc(-c2nnc(N[C@@H]3CCCN(C)C3)n3cccc23)c(Br)c1` [Compound 47, 1-(2-bromo-4-methoxyphenyl)-N-[(3R)-1-methylpiperidin-3-yl]pyrrolo[1,2-d][1,2,4]triazin-4-amine], the pIC50 was 7.00 to 8.00.
With `CCN1CCC[C@@H](Nc2nnc(-c3ccc(C(F)(F)F)cc3OC(F)(F)F)c3cccn23)C1` [Compound 119, N-[(3R)-1-ethylpiperidin-3-yl]-1-[2-(trifluoromethoxy)-4-(trifluoromethyl)phenyl]pyrrolo[1,2-d][1,2,4]triazin-4-amine] the figure was > 9.00; with `CCN1CCC[C@@H](Nc2nnc(-c3ccc(C(F)(F)F)cc3OC(F)(F)F)c3cncn23)C1` [Compound 229, N-[(3R)-1-ethylpiperidin-3-yl]-1-[2-(trifluoromethoxy)-4-(trifluoromethyl)phenyl]imidazo[1,5-d][1,2,4]triazin-4-amine], > 9.00.
Take `COc1ccc(-c2nnc(N[C@@H]3CCCN(C)C3)n3cccc23)c(OC(F)(F)F)c1` [Compound 8, 1-[4-methoxy-2-(trifluoromethoxy)phenyl]-N-[(3R)-1-methylpiperidin-3-yl]pyrrolo[1,2-d][1,2,4]triazin-4-amine]: the pIC50 is 8.00 to 9.00.
The figure for `COCC1CC(Nc2nnc(-c3ccc(C(F)(F)F)cc3OC(F)(F)F)c3cncn23)C1` (stereo not shown) [Compound 324, N-[3-(methoxymethyl)cyclobutyl]-1-[2-(trifluoromethoxy)-4-(trifluoromethyl)phenyl]imidazo[1,5-d][1,2,4]triazin-4-amine] is 7.00 to 8.00; for `COc1ccc(-c2nnc(N[C@@H]3CCCC[C@@]3(C)O)n3cccc23)c(OC(F)(F)F)c1` (single isomer, unassigned) [Compound 181] it is ≤ 6.52.
On to `O[C@H]1CCCC[C@@H]1Nc1nnc(-c2ccc(C(F)(F)F)cc2OC(F)F)c2cccn12` [Compound 78, (1S,2S)-2-({1-[2-(difluoromethoxy)-4-(trifluoromethyl)phenyl]pyrrolo[1,2-d][1,2,4]triazin-4-yl}amino)cyclohexan-1-ol], for which the pIC50 is 7.00 to 8.00.
As for `CC(C)(O)C1CC(Nc2nnc(-c3ccc(C(F)(F)F)cc3CC(F)(F)F)c3cncn23)C1` (stereo not shown) [Compound 339, 2-[3-({1-[2-(2,2,2-trifluoroethyl)-4-(trifluoromethyl)phenyl]imidazo[1,5-d][1,2,4]triazin-4-yl}amino)cyclobutyl]propan-2-ol], the pIC50 was 7.00 to 8.00.
As for `Cc1cc2c(-c3ccc(C(F)(F)F)cc3OC(F)F)nnc(N[C@@H]3CCCC[C@H]3O)n2n1` [Compound 381, (1R,2R)-2-({4-[2-(difluoromethoxy)-4-(trifluoromethyl)phenyl]-2-methylpyrazolo[1,5-d][1,2,4]triazin-7-yl}amino)cyclohexan-1-ol], the pIC50 was 7.00 to 8.00.
The figure for `CN1CCC[C@@H](Nc2nnc(-c3ccc(Br)cc3OC(F)(F)F)c3cncn23)C1` [Compound 312, 1-[4-bromo-2-(trifluoromethoxy)phenyl]-N-[(3R)-1-methylpiperidin-3-yl]imidazo[1,5-d][1,2,4]triazin-4-amine] is > 9.00; for `CCN1C[C@H](F)C[C@@H](Nc2nnc(-c3ccc(OC)cc3OC(F)(F)F)c3c(F)ccn23)C1` [Compound 53, N-[(3R,5R)-1-ethyl-5-fluoropiperidin-3-yl]-8-fluoro-1-[4-methoxy-2-(trifluoromethoxy)phenyl]pyrrolo[1,2-d][1,2,4]triazin-4-amine] it is 8.00 to 9.00; for `O=C1NCCC1Nc1nnc(-c2ccc(C(F)(F)F)cc2C(F)(F)F)c2ccnn12` (stereo not shown) [Compound 396, 3-({4-[2,4-bis(trifluoromethyl)phenyl]pyrazolo[1,5-d][1,2,4]triazin-7-yl}amino)pyrrolidin-2-one] it is 7.00 to 8.00.
The figure for `O[C@@H]1CCCC[C@@H](Nc2nnc(-c3ccc(C(F)(F)F)cc3CC(F)(F)F)c3cccn23)C1` (racemic) [Compound 129, (1R,3R)-3-({1-[2-(2,2,2-trifluoroethyl)-4-(trifluoromethyl)phenyl]pyrrolo[1,2-d][1,2,4]triazin-4-yl}amino)cycloheptan-1-ol AND (1S,3S)-3-({1-[2-(2,2,2-trifluoroethyl)-4-(trifluoromethyl)phenyl]pyrrolo[1,2-d][1,2,4]triazin-4-yl}amino)cycloheptan-1-ol] is 8.00 to 9.00; for `CN(C)C1CCCN(c2nnc(-c3ccc(C(F)(F)F)cc3C(F)(F)F)c3cccn23)C1` (stereo not shown) [Compound 7, 1-{1-[2,4-bis(trifluoromethyl)phenyl]pyrrolo[1,2-d][1,2,4]triazin-4-yl}-N,N-dimethylpiperidin-3-amine] it is 7.00 to 8.00; for `CN1CCC[C@@H](Nc2nnc(-c3ccc(Br)cc3C(F)(F)F)c3cncn23)C1` [Compound 200, 1-[4-bromo-2-(trifluoromethyl)phenyl]-N-[(3R)-1-methylpiperidin-3-yl]imidazo[1,5-d][1,2,4]triazin-4-amine] it is 8.00 to 9.00.
`CCN1CCC[C@@H](Nc2nnc(-c3ccc(C)cc3SC)c3cc(C)nn23)C1` [Compound 367, N-[(3R)-1-ethylpiperidin-3-yl]-2-methyl-4-[4-methyl-2-(methylsulfanyl)phenyl]pyrazolo[1,5-d][1,2,4]triazin-7-amine]: the pIC50 was 8.00 to 9.00.
On to `Cc1ccc(-c2nnc(NC3CCNC3=O)n3cncc23)c(CC(F)(F)F)c1` (stereo not shown) [Compound 288, 3-({1-[4-methyl-2-(2,2,2-trifluoroethyl)phenyl]imidazo[1,5-d][1,2,4]triazin-4-yl}amino)pyrrolidin-2-one], for which the pIC50 was 8.00 to 9.00.

A word on the pIC50: it is the negative decadic logarithm of the IC50, by convention in mol/L.
